Results as given in the supplement of paper PMC5579334.

Legend:
[1] = system: HS-PSS; test: relative IC50 (inflection point of fitted dose-response curve, CellTox-Green cytotoxicity, 72 h; top asymptote may be below 50%); higher = less potent
In short: (§1)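 MPNST cell lines and primary human Schwann cells were incubated 72 h at 37 °C in 384-well plates holding five 10-fold compound dilutions. CellTox-Green was added before seeding at a final 1:1000 dilution and reported fluorescence from DNA released by disrupted cells. Signals were scaled to vehicle and positive-control wells, and cultures failing plate quality control were dropped. Drug sensitivity score and relative IC50 come from four-parameter logistic fits, with IC50 censored at the top concentration.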

[2] = system: HSC2; test: as above
In short: as §1

[3] = system: HSC1; test: as above
In short: as §1

[4] = system: ST8814; test: as above
In short: as §1

[5] = system: HS-Sch-2; test: relative IC50 (inflection point of fitted dose-response curve, CellTiter-Glo viability, 72 h; top asymptote may be below 50% inhibition); higher = less potent
In short: (§2)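 Viability was scored by CellTiter-Glo ATP luminescence, scaled from vehicle to positive-control wells, with duplicates averaged where present. The cells, MPNST lines and primary human Schwann cells at 750–1000 per well, sat 72 h at 37 °C, 5% CO2, in 384-well plates preprinted with each compound at five concentrations in 10-fold steps. Four-parameter logistic fits were run on the data. These fits give drug sensitivity score and relative IC50 censored at the top concentration, and percent inhibition is reported at the top concentration.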

[6] = system: HS-PSS; test: as above
In short: as §2

[7] = system: YST-1; test: as above
In short: as §2

[8] = system: HSC2; test: as above
In short: as §2

[9] = system: HSC1; test: as above
In short: as §2

[10] = system: ST8814; test: as above
In short: as §2

[11] = system: STS26T; test: relative IC50 (inflection point of fitted dose-response curve, CellTox-Green cytotoxicity, 72 h; top asymptote may be below 50%); higher = less potent
In short: as §1

[12] = system: S462; test: relative IC50 (inflection point of fitted dose-response curve, CellTiter-Glo viability, 72 h; top asymptote may be below 50% inhibition); higher = less potent
In short: as §2

[13] = system: STS26T; test: as above
In short: as §2

Row | Structure (SMILES) | relative IC50 [1] | relative IC50 [2] | relative IC50 [3] | relative IC50 [4] | relative IC50 [5] | relative IC50 [6] | relative IC50 [7] | relative IC50 [8] | relative IC50 [9] | relative IC50 [10] | relative IC50 [11] | relative IC50 [12] | relative IC50 [13]
1 | CN1CCC(COc2cnc(-c3cccc(Cn4nc(-c5cccc(C#N)c5)ccc4=O)c3)nc2)CC1 | > 1000 nM | > 1000 nM | > 1000 nM | > 1000 nM | > 1000 nM | > 1000 nM | > 1000 nM | > 1000 nM | > 1000 nM | > 1000 nM |  |  | 
2 | Nc1ncnc2c1c(COc1cccc(Cl)c1)nn2C1CCOCC1 | > 10000 nM | > 10000 nM | > 10000 nM | > 10000 nM |  | > 10000 nM | > 10000 nM | > 10000 nM |  | > 10000 nM | > 10000 nM | > 10000 nM | 
3 | CC1(C)CCC(CN2CCN(c3ccc(C(=O)NS(=O)(=O)c4ccc(NCC5CCOCC5)c([N+](=O)[O-])c4)c(Oc4cnc5[nH]ccc5c4)c3)CC2)=C(c2ccc(Cl)cc2)C1 [ABT-199] |  | > 10000 nM | > 10000 nM |  |  |  |  |  |  |  | > 10000 nM |  | > 10000 nM
4 | Cc1cc(Nc2nc(N[C@@H](C)c3ncc(F)cn3)ncc2Cl)[nH]n1 [AZD1480] | > 1000 nM |  | > 1000 nM | > 1000 nM | > 1000 nM |  |  |  | 193 nM |  |  |  | 
5 | COc1cc(CCc2cc(NC(=O)c3ccc(N4CC(C)NC(C)C4)cc3)n[nH]2)cc(OC)c1 (stereo not given) [AZD4547] | > 1000 nM | > 1000 nM | > 1000 nM | > 1000 nM | 253 nM | > 1000 nM | > 1000 nM |  |  | > 1000 nM | > 1000 nM |  | > 1000 nM
6 | C[C@]12CC[C@H](O)CC1=CC[C@@H]1[C@@H]2CC[C@]2(C)C(c3cccnc3)=CC[C@@H]12 [Abiraterone] | > 5000 nM | > 5000 nM | > 5000 nM | > 5000 nM | > 5000 nM | > 5000 nM | > 5000 nM |  |  | > 5000 nM | > 5000 nM |  | 
7 | CNC(=O)c1ccccc1Sc1ccc2c(/C=C/c3ccccn3)n[nH]c2c1 [Axitinib] | > 10000 nM |  |  |  | 1700 nM | 2580 nM | 972 nM | 694 nM | 1200 nM | 1360 nM | 1380 nM | 933 nM | 1510 nM
8 | C=C(c1ccc(C(=O)O)cc1)c1cc2c(cc1C)C(C)(C)CCC2(C)C [Bexarotene] | > 10000 nM | > 10000 nM | > 10000 nM | > 10000 nM | > 10000 nM | > 10000 nM | > 10000 nM | > 10000 nM |  | > 10000 nM | > 10000 nM | > 10000 nM | > 10000 nM
9 | Cc1c(N)nc([C@H](CC(N)=O)NC[C@H](N)C(N)=O)nc1C(=O)N[C@H](C(=O)N[C@H](C)[C@@H](O)[C@H](C)C(=O)N[C@H](C(=O)NCCc1nc(-c2nc(C(=O)NCCC[S+](C)C)cs2)cs1)[C@@H](C)O)[C@@H](O[C@@H]1O[C@@H](CO)[C@@H](O)[C@H](O)[C@@H]1O[C@H]1O[C@H](CO)[C@@H](O)[C@H](OC(N)=O)[C@@H]1O)c1c[nH]cn1 [Bleomycin] |  |  | > 10000 nM | 2850 nM | 923 nM | 835 nM | 594 nM | 284 nM | 580 nM | 1620 nM | 328 nM | 2270 nM | 1670 nM
10 | CCC/C=C/C=C/C(=O)O[C@H]1/C(=C/C(=O)OC)C[C@H]2C[C@H]([C@@H](C)O)OC(=O)C[C@H](O)C[C@@H]3C[C@H](OC(C)=O)C(C)(C)[C@](O)(C[C@@H]4C/C(=C/C(=O)OC)C[C@H](/C=C/C(C)(C)[C@]1(O)O2)O4)O3 [Bryostatin 1] | > 100 nM | > 100 nM | > 100 nM | > 100 nM | 0.41 nM |  | > 100 nM | > 100 nM | > 100 nM | > 100 nM | > 100 nM |  | 
11 | CC1=NN(c2ccc(C(=O)O)cc2)C(=O)C1=Cc1ccc(-c2cc(C)c(C)cc2[N+](=O)[O-])o1 [C646] | > 25000 nM | 9180 nM | > 25000 nM | > 25000 nM | > 25000 nM |  |  | > 25000 nM | > 25000 nM | > 25000 nM | > 25000 nM |  | > 25000 nM
12 | COc1cc2c(Oc3ccc4[nH]c(C)cc4c3F)ncnc2cc1OCCCN1CCCC1 [Cediranib] | > 1000 nM |  | > 1000 nM |  | > 1000 nM |  | > 1000 nM | > 1000 nM |  | > 1000 nM | > 1000 nM | > 1000 nM | > 1000 nM
13 | Nc1nc(Cl)nc2c1ncn2[C@H]1C[C@H](O)[C@@H](CO)O1 [Cladribine] |  | 319 nM | 350 nM |  | 351 nM | 366 nM | 321 nM | 174 nM | 151 nM |  |  |  | 226 nM
14 | C[C@@H](Oc1cc(-c2cnn(C3CCNCC3)c2)cnc1N)c1c(Cl)ccc(F)c1Cl [Crizotinib] | > 1000 nM | > 1000 nM | > 1000 nM | > 1000 nM |  | 367 nM | 393 nM |  |  | > 1000 nM | > 1000 nM |  | > 1000 nM
15 | COc1cc2ncnc(Nc3ccc(F)c(Cl)c3)c2cc1NC(=O)/C=C/CN1CCCCC1 [Dacomitinib] |  | > 1000 nM | > 1000 nM | > 1000 nM | 148 nM | 144 nM | > 1000 nM |  |  |  | > 1000 nM |  | 
16 | Nc1ncn([C@H]2C[C@H](O)[C@@H](CO)O2)c(=O)n1 [Decitabine] | > 10000 nM | > 10000 nM | > 10000 nM | > 10000 nM | 782 nM | > 10000 nM | > 10000 nM | 2260 nM |  |  | > 10000 nM | 273 nM | 
17 | CNC(=O)c1ccc(N2C(=S)N(c3ccc(C#N)c(C(F)(F)F)c3)C(=O)C2(C)C)cc1F [Enzalutamide] | > 10000 nM | > 10000 nM | > 10000 nM | > 10000 nM | > 10000 nM | > 10000 nM | > 10000 nM | > 10000 nM |  |  | > 10000 nM | > 10000 nM | > 10000 nM
